Reference: ChEMBL document CHEMBL3885861, “Open TG-GATES”

Organism: Rattus norvegicus
Experiment: Open TG-GATES - Regimen: Single
Type: toxicity, organism-based, Sprague-Dawley
Design: regimen Single, gender Male, age 6 weeks
Settings: in vivo, po, 300 mg/kg, route gavage, dose level High; for APTT / Bas / Eos / Fbg / Hb / Ht / Lym / MCH / MCHC / MCV / Mono / Neu / PT / Plat / RBC / Ret / WBC: tissue Blood; for KIDNEY_L / KIDNEY_R / KIDNEY_TOTAL: tissue Kidney; for LIVER: tissue Liver; for A/G / ALP / ALT / AST / BUN / CRE / Ca / Cl / DBIL / GLC / IP / K / LDH / Na / PL / RALB / TBIL / TC / TG / TP / gamma-GTP: tissue Plasma

**Q.** What does the source list for `CCC1(c2ccccc2)C(=O)NC(=O)NC1=O` [PHENOBARBITAL]?
**A.** TERMINAL_BW (3 h): 225.3 g; APTT (3 h): 22 s; Bas (3 h): 0.2%; Eos (3 h): 1%; Fbg (3 h): 202.2 mg/dL; Hb (3 h): 13.6 g/dL; Ht (3 h): 37.8%; Lym (3 h): 78.6%; MCH (3 h): 21.9 pg; MCHC (3 h): 36%; MCV (3 h): 61.1 fL; Mono (3 h): 2.8%; Neu (3 h): 16.6%; PT (3 h): 12.3 s; Plat (3 h): 122.8 x10_4/uL; RBC (3 h): 619.4 x10_4/ul; Ret (3 h): 7.8%; WBC (3 h): 75.1 x10_2/uL; KIDNEY_L (3 h): 1 g; KIDNEY_R (3 h): 1 g; KIDNEY_TOTAL (3 h): 2.1 g; LIVER (3 h): 10 g; A/G (3 h): 1.6; ALP (3 h): 833 IU/L; ALT (3 h): 40.2 IU/L; AST (3 h): 73 IU/L; BUN (3 h): 8 mg/dL; CRE (3 h): 0.3 mg/dL; Ca (3 h): 10.5 mg/dL; Cl (3 h): 100.6 meq/L; DBIL (3 h): 0.064 mg/dL; GLC (3 h): 183.2 mg/dL; IP (3 h): 10.3 mg/dL; K (3 h): 4.1 meq/L; LDH (3 h): 142 IU/L; Na (3 h): 140.6 meq/L; PL (3 h): 152 mg/dL; RALB (3 h): 3.2 g/dL; TBIL (3 h): 0.1 mg/dL; TC (3 h): 77 mg/dL; TG (3 h): 57.2 mg/dL; TP (3 h): 5.1 g/dL; gamma-GTP (3 h): 0.8 IU/L; TERMINAL_BW (6 h): 221.9 g; APTT (6 h): 20.5 s; Bas (6 h): 0%; Eos (6 h): 1%; Fbg (6 h): 219 mg/dL; Hb (6 h): 14.2 g/dL; Ht (6 h): 39.1%; Lym (6 h): 76.8%; MCH (6 h): 21.8 pg; MCHC (6 h): 36.3%; MCV (6 h): 60.2 fL; Mono (6 h): 3.4%; Neu (6 h): 17.6%; PT (6 h): 12 s; Plat (6 h): 120.7 x10_4/uL; RBC (6 h): 649.4 x10_4/ul; Ret (6 h): 7.7%; WBC (6 h): 62.8 x10_2/uL; KIDNEY_L (6 h): 1 g; KIDNEY_R (6 h): 1 g; KIDNEY_TOTAL (6 h): 2 g; LIVER (6 h): 9.4 g; A/G (6 h): 1.6; ALP (6 h): 672.6 IU/L; ALT (6 h): 29.2 IU/L; AST (6 h): 58.4 IU/L; BUN (6 h): 8.6 mg/dL; CRE (6 h): 0.3 mg/dL; Ca (6 h): 10.5 mg/dL; Cl (6 h): 100.4 meq/L; DBIL (6 h): 0.07 mg/dL; GLC (6 h): 176 mg/dL; IP (6 h): 9.5 mg/dL; K (6 h): 4.2 meq/L; LDH (6 h): 162.2 IU/L; Na (6 h): 139.2 meq/L; PL (6 h): 142.4 mg/dL; RALB (6 h): 3.2 g/dL; TBIL (6 h): 0.1 mg/dL; TC (6 h): 74.4 mg/dL; TG (6 h): 44.2 mg/dL; TP (6 h): 5.2 g/dL; gamma-GTP (6 h): 1.2 IU/L; TERMINAL_BW (9 h): 219.7 g; APTT (9 h): 19.3 s; Bas (9 h): 0%; Eos (9 h): 0.8%; Fbg (9 h): 219.4 mg/dL; Hb (9 h): 13.8 g/dL; Ht (9 h): 38.3%; Lym (9 h): 71.8%; MCH (9 h): 22 pg; MCHC (9 h): 36%; MCV (9 h): 60.9 fL; Mono (9 h): 3.6%; Neu (9 h): 22%; PT (9 h): 12.4 s; Plat (9 h): 125.2 x10_4/uL; RBC (9 h): 630.2 x10_4/ul; Ret (9 h): 7.7%; WBC (9 h): 73.7 x10_2/uL; KIDNEY_L (9 h): 1 g; KIDNEY_R (9 h): 1 g; KIDNEY_TOTAL (9 h): 1.9 g; LIVER (9 h): 8.6 g; A/G (9 h): 1.5; ALP (9 h): 558.2 IU/L; ALT (9 h): 35.8 IU/L; AST (9 h): 78 IU/L; BUN (9 h): 9 mg/dL; CRE (9 h): 0.3 mg/dL; Ca (9 h): 10.3 mg/dL; Cl (9 h): 99.6 meq/L; DBIL (9 h): 0.064 mg/dL; GLC (9 h): 186.2 mg/dL; IP (9 h): 9.7 mg/dL; K (9 h): 4.2 meq/L; LDH (9 h): 170.4 IU/L; Na (9 h): 139.4 meq/L; PL (9 h): 137.8 mg/dL; RALB (9 h): 3 g/dL; TBIL (9 h): 0.1 mg/dL; TC (9 h): 74.8 mg/dL; TG (9 h): 29.8 mg/dL; TP (9 h): 5 g/dL; gamma-GTP (9 h): 1 IU/L; TERMINAL_BW (24 h): 201.5 g; APTT (24 h): 24.3 s; Bas (24 h): 1%; Eos (24 h): 1%; Fbg (24 h): 207 mg/dL; Hb (24 h): 16.1 g/dL; Ht (24 h): 44.2%; Lym (24 h): 82.3%; MCH (24 h): 22 pg; MCHC (24 h): 36.6%; MCV (24 h): 60.1 fL; Mono (24 h): 2.3%; Neu (24 h): 13%; PT (24 h): 12.3 s; Plat (24 h): 145.9 x10_4/uL; RBC (24 h): 735.3 x10_4/ul; Ret (24 h): 6.5%; WBC (24 h): 84.5 x10_2/uL; KIDNEY_L (24 h): 1 g; KIDNEY_R (24 h): 1 g; KIDNEY_TOTAL (24 h): 2 g; LIVER (24 h): 7.7 g; A/G (24 h): 1.6; ALP (24 h): 449.7 IU/L; ALT (24 h): 21 IU/L; AST (24 h): 53 IU/L; BUN (24 h): 9 mg/dL; CRE (24 h): 0.3 mg/dL; Ca (24 h): 10.5 mg/dL; Cl (24 h): 100 meq/L; DBIL (24 h): 0.06 mg/dL; GLC (24 h): 141 mg/dL; IP (24 h): 9 mg/dL; K (24 h): 4.6 meq/L; LDH (24 h): 113.3 IU/L; Na (24 h): 139.3 meq/L; PL (24 h): 100 mg/dL; RALB (24 h): 3.2 g/dL; TBIL (24 h): 0.1 mg/dL; TC (24 h): 58.7 mg/dL; TG (24 h): 13.3 mg/dL; TP (24 h): 5.2 g/dL; gamma-GTP (24 h): 1 IU/L
